Results as given in US7622471B2, “Pyrazole derivatives having a pyridazine and pyridine functionality” (Daiichi Pharmaceutical Co., Ltd., priority 2003, dated 2009).
pIC50: −log10 of the molar value. Read-outs that look alike come from different tables or passages of the source.

How the values were obtained:
[1] = not dose-dependent; cited from earlier work
[2] = tested on: collagen-induced platelet aggregation; conditions: prior-art compound, cited from earlier work
[3] = tested on: collagen-induced platelet aggregation; test: Platelet aggregation-inhibiting action (collagen-induced aggregation of human platelet rich plasma); assay type: cell-based; conditions: human PRP, read-out: Inhibition of collagen-induced platelet aggregation, IC50
Protocol: Human blood was collected in the presence of 3.13% sodium citrate as an anticoagulant in a volume 1/10 the blood volume. The collected blood was centrifuged at 180 g for 10 minutes so as to separate the upper layer; i.e., platelet rich plasma (PRP) from the blood. The remaining lower layer was further centrifuged at 1600 g for 10 minutes, and platelet poor plasma (PPP); i.e., the thus-obtained upper layer, was collected. A solution (1 μL) of the inventive compound was added to PRP (200 μL), and the mixture was allowed to stand at 37° C. for 2 minutes. Subsequently, collagen (2 μL) was added to the resultant mixture so as to induce platelet aggregation. Percent platelet aggregation was measured by means of PAM-12C(SSR Engineering). Optical transmittance of PPP was employed as the value reflecting the state in which 100% coagulation occurred. Percent platelet aggregation values of PRP were determined at a series of concentrations of each Example compound. From the determined values, IC50 with respect to each compound was calculated.

[4] = target: T1, cyclooxygenase-1 (COX-1) (Ovis aries, UniProt P05979); test: Inhibitory effect on COX-1 (COX Inhibitor Screening Assay Kit, PGF2α ELISA); assay type: biochemical; conditions: 50 μM compound
T1 construct: purchased Cayman Chemical Company 560101 and 560121
T1 sequence (P05979 25-600): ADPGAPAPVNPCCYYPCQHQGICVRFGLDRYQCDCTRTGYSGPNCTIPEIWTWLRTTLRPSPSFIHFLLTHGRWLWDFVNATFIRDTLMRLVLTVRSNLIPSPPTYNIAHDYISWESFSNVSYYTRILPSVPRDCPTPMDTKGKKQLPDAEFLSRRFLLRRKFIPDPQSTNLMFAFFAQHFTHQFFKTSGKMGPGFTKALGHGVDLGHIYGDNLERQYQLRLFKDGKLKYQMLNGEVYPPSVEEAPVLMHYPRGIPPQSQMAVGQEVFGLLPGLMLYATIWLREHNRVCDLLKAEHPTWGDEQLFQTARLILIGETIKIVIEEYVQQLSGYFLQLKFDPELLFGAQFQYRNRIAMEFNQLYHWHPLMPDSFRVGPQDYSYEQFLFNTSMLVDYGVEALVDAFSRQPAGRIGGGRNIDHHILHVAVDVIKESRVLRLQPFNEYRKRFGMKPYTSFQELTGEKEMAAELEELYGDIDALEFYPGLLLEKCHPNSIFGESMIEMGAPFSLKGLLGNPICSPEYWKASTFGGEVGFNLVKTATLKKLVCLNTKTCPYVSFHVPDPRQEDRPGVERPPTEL
Protocol: (§1) Inhibitory activity against COX-1 and COX-2 of the compounds produced in the Examples was measured using a COX Inhibitor Screening Assay Kit (product of Cayman Chemical Company, Catalog Nos. 560101 and 560121).
(§2) Before starting the measurement, reaction buffer, heme, arachidonic acid, SnCl2, EIA buffer, washing buffer, prostaglandin (PG) screening EIA standard, PG screening acetylcholine esterase (AchE), tracer (chromogenic enzyme […] conjugate), and PG screening EIA antiserum were prepared ready for use.
(§3) (1) Production of PGF2α in the Presence of COX-1 or COX-2
(§4) A reaction mixture containing the compound of the Examples (50 μM) and COX-1 or COX-2 was incubated at 37° C. for 10 minutes. Arachidonic acid (10 μL) was added thereto, and the resultant mixture was further incubated at 37° C. for 2 minutes. 1N-Hydrochloric acid (50 μL) was added to the reaction mixture, to thereby stop the reaction. SnCl2 solution (100 μL) was added thereto, and the resultant mixture was kept at room temperature for 5 minutes.
(§5) (2) Quantitative Determination of PGF2α through ELISA
(§6) Antiserum (rabbit anti-PGF2αantibody, 50 μL) was added to the wells of 96 well plate that had been coated with mouse anti-rabbit IgG. A solution of PGF2α-containing mixture obtained above (2000-fold dilution, 50 μL) and AchE tracer (50 μL) were added to the well in this order, and the mixture was incubated at room temperature for 18 hours. The wells were washed 5 times with the washing buffer to remove an excessive AchE tracer, and Ellman reagent (200 μL) was added. After keeping the plate in a dark room for 60 minutes, absorbance at 405 nm was measured.
(§7) (3) Calculation of Inhibitory Activity of the Compound of the Examples
(§8) A calibration curve was obtained by use of the PG screening EIA standard, and the production amount of PGF2α was determined from the absorbance. Percent inhibition of COX-1 or COX-2 activity at 50 μM of the compound of the Examples was calculated.

[5] = target: T2, cyclooxygenase-2 (COX-2) (Homo sapiens, UniProt P35354); test: Inhibitory effect on COX-2 (COX Inhibitor Screening Assay Kit, PGF2α ELISA); assay type: biochemical; conditions: 50 μM compound
T2 construct: purchased Cayman Chemical Company 560101 and 560121
T2 sequence (P35354 18-604): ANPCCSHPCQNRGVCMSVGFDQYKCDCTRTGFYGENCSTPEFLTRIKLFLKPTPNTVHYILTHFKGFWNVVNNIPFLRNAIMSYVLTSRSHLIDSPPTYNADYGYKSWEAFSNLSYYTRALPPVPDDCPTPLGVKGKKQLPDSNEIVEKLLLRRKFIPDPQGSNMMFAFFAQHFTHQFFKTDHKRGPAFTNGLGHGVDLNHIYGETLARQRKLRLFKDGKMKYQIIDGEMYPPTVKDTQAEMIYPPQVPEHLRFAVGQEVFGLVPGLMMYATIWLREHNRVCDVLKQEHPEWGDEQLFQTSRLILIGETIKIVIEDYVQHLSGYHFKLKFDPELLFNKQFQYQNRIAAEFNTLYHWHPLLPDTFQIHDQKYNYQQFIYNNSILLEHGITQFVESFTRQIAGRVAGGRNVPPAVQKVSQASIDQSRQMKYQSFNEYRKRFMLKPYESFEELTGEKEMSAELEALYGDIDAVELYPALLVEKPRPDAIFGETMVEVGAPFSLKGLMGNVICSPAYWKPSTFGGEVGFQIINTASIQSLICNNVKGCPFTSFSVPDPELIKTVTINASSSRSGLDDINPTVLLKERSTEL
Protocol: as §1, §2, §3, §4, §5, §6, §7, §8

Compound | pIC50 [3] | Inhibitory effect against COX-1 at 50 μM (% inhibition) [4] [% inhibition] | Inhibitory effect against COX-2 at 50 μM (% inhibition) [5] [% inhibition] | other results
CC(=O)Oc1ccccc1C(=O)O [Aspirin] |  |  |  | rate of side effects such as hemorrhage in gastrointestine (aspirin-induced ulcer) [1]: about 1 per 100 patients
CS(=O)(=O)c1ccc(-c2cc(C#N)nn2-c2ccc(F)cc2)cc1 [Compound (A)] |  |  |  | pIC50 ([2]; read-out: IC50 value against collagen-induced platelet aggregation): 5.28
COc1ccc(-n2nc(C(=O)N3CCN(C)C(=O)C3)cc2-c2ccccn2)cn1 [Example 23, 1-[1-(6-Methoxy-3-pyridyl)-5 (2-pyridyl)pyrazole-3-carbonyl]-4-methyl-3-oxopiperazine] | 6.77 | −1.2 | 3.4 | 
COc1ccnc(-c2cc(C(=O)N3CCN(C)CC3)nn2-c2ccc(OC)nc2)c1 [Example 27, 1-[1-(6-Methoxy-3-pyridyl)-5-(4-methoxy-2-pyridyl)pyrazole-3-carbonyl]-4-methylpiperazine] | 6.57 | 0.5 | −0.1 | 
COc1ccc(-n2nc(C(=O)N3CCOCC3)cc2-c2ccccn2)cn1 [Example 36, 4-[1-(6-Methoxy-3-pyridyl)-5-(2-pyridyl)pyrazole-3-carbonyl]morpholine] | 6.85 |  |  | 
COc1ccc(-n2nc(C(=O)N3CCN(C4CC4)CC3)cc2-c2ccccn2)cn1 [Example 55, 1-[1-(6-Methoxy-3-pyridyl)-5-(2-pyridyl)pyrazole-3-carbonyl]-4-cyclopropylpiperazine] | 7.46 |  |  | 
COc1ccc(-n2nc(C(=O)N3CCN(C)CC3)cc2-c2ccccc2)cn1 [Example 62, 1-[1-(6-Methoxy-3-pyridyl)-5-phenylpyrazole-3-carbonyl]-4-methylpiperazine] | 6.92 | −2.4 | −2.6 | 
COc1ccc(-n2nc(C(=O)N3CC(N(C)C)C3)cc2-c2ccccc2)cn1 [Example 70, 1-[1-(6-Methoxy-3-pyridyl)-5-phenylpyrazole-3-carbonyl]-3-dimethylaminoazetidine] | 6.59 |  |  | 
COc1ccc(-n2nc(C(=O)N3CCCCC3)cc2-c2ccccn2)nn1 [Example 122, 1-[1-(6-Methoxy-3-pyridazinyl)-5-(2-pyridyl)pyrazole-3-carbonyl] piperidine] | 6.12 | 1 | 4.5 | 
COc1ccc(-n2nc(C(=O)N3CCN(C)CC3)cc2-c2ccccn2)nn1 [Example 132, 1-[1-(6-Methoxy-3-pyridazinyl)-5-(2-pyridyl)pyrazole-3-carbonyl]-4-methylpiperazine] | 6.40 | 2.7 | 10.5 | 
COc1ccc(-n2nc(C(=O)N3CCC(F)(F)CC3)cc2-c2ccccn2)nn1 [Example 139, 1-[1-(6-Methoxy-3-pyridazinyl)-5-(2-pyridyl)pyrazole-3-carbonyl]-4,4-difluoropiperidine] | 7.38 | 7.6 | 3.4 | 
COc1ccc(-n2nc(C(=O)N3CCCC(F)(F)C3)cc2-c2ccccn2)nn1 [Example 140, 1-[1-(6-Methoxy-3-pyridazinyl)-5-(2-pyridyl)pyrazole-3-carbonyl]-3,3-difluoropiperidine] | 6.96 |  |  | 
COc1cnc(-n2nc(C(=O)N3CCN(C)CC3)cc2-c2ccccn2)cn1 [Example 144, 1-[1-(5-Methoxy-2-pyrazinyl)-5-(2-pyridyl)pyrazole-3-carbonyl]-4-methylpiperazine] | 6.36 | 9.7 | 8.8 | 
COc1ccc(-n2nc(C(=O)N3CCN(C)CC3)cc2-c2cnccn2)cn1 [Example 148, 1-[1-(6-Methoxy-3-pyridyl)-5-(2-pyrazinyl)pyrazole-3-carbonyl]-4-methylpiperazine] | 7.05 |  |  | 
COc1ccc(-n2nc(C(=O)N3CCCOCC3)cc2-c2ccccn2)cn1 [Example 160, 4-[1-(6-Methoxy-3-pyridyl)-5-(2-pyridyl)pyrazole-3-carbonyl]-1,4-oxazepane] | 6.77 |  |  | 
COc1ccc(-n2nc(C(=O)N3CCCCN3C(C)=O)cc2-c2ccccn2)cn1 [Example 163, 1-[1-(6-Methoxy-3-pyridyl)-5-(2-pyridyl)pyrazole-3-carbonyl]-2-acetylhexahydropyridazine] | 7.05 |  |  | 
COc1ccc(-n2nc(C(=O)N3CCN(C)CC3)cc2-c2ccc[nH]2)cn1 [Example 167, 1-[1-(6-Methoxy-3-pyridyl)-5-(pyrrol-2-yl)pyrazole-3-carbonyl]-4-methylpiperazine] | 7.54 |  |  | 
COc1ccc(-n2nc(C(=O)N3CCOCC3)cc2-c2ccc[nH]2)cn1 [Example 168, 4-[1-(6-Methoxy-3-pyridyl)-5-(pyrrol-2-yl)pyrazole-3-carbonyl]morpholine] | 7.77 |  |  | 
COc1ccc(-c2cc(C(F)F)nn2-c2ccc(S(N)(=O)=O)cc2)cc1F [compound (B)] |  |  |  | platelet aggregation inhibitory activity compared with inhibitory activity against COX-2 ([2]; in words): not so potent
